Assay results as given in the NIST ThermoML archive (doi:10.1016/j.fluid.2013.01.015).
Numbers after ± are expanded uncertainties.

Legend:
[1] = refractive index (Na D-line) (dimensionless); settings: 298.15 K; 101.33 kPa; Liquid; Standard Abbe refractometry
[2] = 298.15 K; 101.33 kPa; Liquid; Vibrating tube method

Row | Compound | refractive index [1] | mass density [2]
1 | Cc1ccccc1C [1,2-dimethylbenzene] | 1.49466 ± 0.00072 | 859.54 ± 0.14 kg/m3
2 | Cc1cccc(C)c1 [1,3-dimethylbenzene] | 1.49464 ± 0.00072 | 859.95 ± 0.14 kg/m3
3 | Cc1ccc(C)cc1 [1,4-dimethylbenzene] | 1.4958 ± 0.0007 | 856.71 ± 0.14 kg/m3
4 | CCCCCCCC [octane] | 1.3951 ± 0.0007 | 698.61 ± 0.17 kg/m3
